Data reported in publication PMC4306947, “Synthesis and Antiproliferative Activity of Thiazolyl-bis-pyrrolo[2,3-b]pyridines and Indolyl-thiazolyl-pyrrolo[2,3-c]pyridines, Nortopsentin Analogues” (Marine Drugs, 2015).
Read-outs that look alike come from different tables or passages of the source.

Key:
SF-268 = experiment: NCI-60 in vitro tumor cell screen, SF-268; assay type: cell-based; conditions: Homo sapiens; SF-268, CNS Cancer
Description: (§1) All the synthesized thiazoles 1a–l, 2a–j, 3a–f and 4a–f were evaluated by the National Cancer Institute (Bethesda MD) for cytotoxicity against the NCI-60 cell line panel using standard protocols. Initially, all derivatives were tested at a single dose (10^−5 M) on the full panel of approximately 60 human tumor cell lines derived from 9 human cancer cell types, that have been grouped in disease sub-panels including leukemia, non-small-cell lung, colon, central nervous system (CNS), melanoma, ovarian, renal, prostate and breast cancers (data not shown). Compounds 1k and 4c were further selected for full evaluation at five concentration levels (10^−4–10^−8 M).
(§2) The antitumor activity of compounds 1k and 4c was given by three parameters for each cell line: GI50 (GI50 is the molar concentration of the compound that inhibits 50% net cell growth), TGI (TGI is the molar concentration of the compound leading to total inhibition of net cell growth), and LC50 (LC50 is the molar concentration of the compound that induces 50% net cell death). The average values of mean graph midpoint (MG_MID) were calculated for each of these parameters.

SK-MEL-5 = experiment: NCI-60 in vitro tumor cell screen, SK-MEL-5; assay type: cell-based; conditions: Homo sapiens; SK-MEL-5, Melanoma
Description: as §1, §2

KM12 = experiment: NCI-60 in vitro tumor cell screen, KM12; assay type: cell-based; conditions: Homo sapiens; KM12, Colon Cancer
Description: as §1, §2

NCI/ADR-RES = experiment: NCI-60 in vitro tumor cell screen, NCI/ADR-RES; assay type: cell-based; conditions: Homo sapiens, Ovarian Cancer
Description: as §1, §2

TK-10 = experiment: NCI-60 in vitro tumor cell screen, TK-10; assay type: cell-based; conditions: Homo sapiens; TK-10, Renal Cancer
Description: as §1, §2

A549/ATCC = experiment: NCI-60 in vitro tumor cell screen, A549/ATCC; assay type: cell-based; conditions: Homo sapiens, Non-Small Cell Lung Cancer
Description: as §1, §2

SNB-19 = experiment: NCI-60 in vitro tumor cell screen, SNB-19; assay type: cell-based; conditions: Homo sapiens; SNB-19, CNS Cancer
Description: as §1, §2

A498 = experiment: NCI-60 in vitro tumor cell screen, A498; assay type: cell-based; conditions: Homo sapiens; A498, Renal Cancer
Description: as §1, §2

NCI-60 cell line panel = experiment: NCI-60 cell line panel, summary over the full panel or subpanel; assay type: cell-based, human; conditions: for GI50: Homo sapiens
Description: as §1, §2

SW-620 = experiment: NCI-60 in vitro tumor cell screen, SW-620; assay type: cell-based; conditions: Homo sapiens; SW-620, Colon Cancer
Description: as §1, §2

SF-295 = experiment: NCI-60 in vitro tumor cell screen, SF-295; assay type: cell-based; conditions: Homo sapiens; SF-295, CNS Cancer
Description: as §1, §2

SK-OV-3 = experiment: NCI-60 in vitro tumor cell screen, SK-OV-3; assay type: cell-based; conditions: Homo sapiens; SK-OV-3, Ovarian Cancer
Description: as §1, §2

RPMI-8226 = experiment: NCI-60 in vitro tumor cell screen, RPMI-8226; assay type: cell-based; conditions: Homo sapiens; RPMI-8226, Leukemia
Description: as §1, §2

HCT-116 = experiment: NCI-60 in vitro tumor cell screen, HCT-116; assay type: cell-based; conditions: Homo sapiens; HCT-116, Colon Cancer; measured by NCI after 72 h treatment
Description: as §1, §2

HT29 = experiment: NCI-60 in vitro tumor cell screen, HT29; assay type: cell-based; conditions: Homo sapiens, HT-29; HT29, Colon Cancer
Description: as §1, §2

MDA-MB-468 = experiment: NCI-60 in vitro tumor cell screen, MDA-MB-468; assay type: cell-based; conditions: Homo sapiens; MDA-MB-468, Breast Cancer
Description: as §1, §2

HCT-116 cells = experiment: Phosphatidylserine exposure, Annexin V-FITC/PI flow cytometry; assay type: cell-based, human; conditions: 24 h
Description: The apoptosis-induced PS externalization to the cell surface was measured by flow cytometry by double staining with Annexin V-Fluorescein isothiocyanate (Annexin V-FITC)/propidium iodide (PI). Annexin V binding to phosphatidylserine is used to identify the earliest stage of apoptosis. […] After 24 h treatment, HCT-116 cells were harvested by trypsinization and adjusted at 1.0 × 10^6 cells/mL with combining buffer according to the manufacturer instructions (eBioscience, San Diego, CA, USA). One hundred μL of cell suspensions were added to a new tube, and incubated with Annexin V-FITC and PI solution at room temperature in the dark for 15 min. Then samples of at least 1.0 × 10^4 cells were subjected to FACS analysis using appropriate 2-bidimensional gating method.

NCI-H226 = experiment: NCI-60 in vitro tumor cell screen, NCI-H226; assay type: cell-based; conditions: Homo sapiens; NCI-H226, Non-Small Cell Lung Cancer
Description: as §1, §2

HCT-15 = experiment: NCI-60 in vitro tumor cell screen, HCT-15; assay type: cell-based; conditions: Homo sapiens; HCT-15, Colon Cancer
Description: as §1, §2

SNB-75 = experiment: NCI-60 in vitro tumor cell screen, SNB-75; assay type: cell-based; conditions: Homo sapiens; SNB-75, CNS Cancer
Description: as §1, §2

CCRF-CEM = experiment: NCI-60 in vitro tumor cell screen, CCRF-CEM; assay type: cell-based; conditions: Homo sapiens, Leukemia
Description: as §1, §2

OVCAR-8 = experiment: NCI-60 in vitro tumor cell screen, OVCAR-8; assay type: cell-based; conditions: Homo sapiens; OVCAR-8, Ovarian Cancer
Description: as §1, §2

HS 578T = experiment: NCI-60 in vitro tumor cell screen, HS 578T; assay type: cell-based; conditions: Homo sapiens, Breast Cancer
Description: as §1, §2

OVCAR-5 = experiment: NCI-60 in vitro tumor cell screen, OVCAR-5; assay type: cell-based; conditions: Homo sapiens; OVCAR-5, Ovarian Cancer
Description: as §1, §2

[1] = mean over the NCI full panel, read-out: GI50 mean value
[2] = range over the NCI full panel, read-out: GI50 values against most of the human cell lines (range)

SMILES	GI50 (SF-268)	GI50 (SK-MEL-5)	GI50 (KM12)	GI50 (NCI/ADR-RES)	GI50 (TK-10)	GI50 (A549/ATCC)	GI50 (SNB-19)	GI50 (A498)	GI50 (NCI-60 cell line panel; [1])	GI50 (NCI-60 cell line panel; [2])	percentage of sensitive cell lines out of the total number of cell lines investigated (NCI-60 cell line panel; NCI full panel)	GI50 (SW-620)	GI50 (SF-295)	GI50 (SK-OV-3)	GI50 (RPMI-8226)	GI50 (HCT-116)	GI50 (HT29)	GI50 (MDA-MB-468)	apoptosis (Annexin V-FITC/PI staining) (HCT-116 cells)	GI50 (NCI-H226)	other results
Cn1cc(-c2csc(-c3c[nH]c4ncccc34)n2)c2cc(Br)cnc21 [Compound 1k, 5-Bromo-1-methyl-3-[2-(1H-pyrrolo[2,3-b]pyridin-3-yl)-1,3-thiazol-4-yl]-1H-pyrrolo[2,3-b]pyridine]	6.01 µM	2.05 µM	5.7 µM	3.88 µM	3.77 µM	2.59 µM	6.74 µM	10.9 µM	5.26 µM	0.81 to 27.7 µM	89%	4.46 µM	3.01 µM	3.25 µM	> 100 µM	2.91 µM	6.75 µM	0.81 µM	percentage of cells in late apoptosis increased	1.97 µM	GI50 (HCT-15): 13.7 µM; GI50 (SNB-75): 2.18 µM; GI50 (CCRF-CEM): 6.81 µM; GI50 (OVCAR-8): 3.72 µM; GI50 (HS 578T): 2.43 µM; GI50 (OVCAR-5): > 100 µM
Clc1nccc2c(-c3csc(-c4c[nH]c5ccc(Br)cc45)n3)c[nH]c12 [Compound 4c, 3-[2-(5-Bromo-1H-indol-3-yl)-1,3-thiazol-4-yl]-7-chloro-1H-pyrrolo[2,3-c]pyridine]	4.06 µM	2.61 µM	2.15 µM	2.71 µM	4.16 µM	3.83 µM	3.25 µM	1.56 µM	2.59 µM	0.93 to 4.7 µM	100%	1.92 µM	2.48 µM	2.78 µM	4.03 µM	2.35 µM	2.66 µM	1.18 µM	evident only at high concentrations (GI70)	2.4 µM	GI50 (NCI-60 cell line panel; all renal cancer subpanel cell lines, read-out: GI50 range, renal cancer subpanel): 0.93 to 4.16 µM; percentage of cell lines with positive LC50 values (NCI-60 cell line panel; NCI full panel, data not shown): 81%; percentage of cell lines with positive TGI values (NCI-60 cell line panel; NCI full panel, data not shown): 98%; GI50 (HCT-15): 1.4 µM; GI50 (SNB-75): 2.37 µM; GI50 (CCRF-CEM): 3.16 µM; GI50 (OVCAR-8): 3.65 µM; GI50 (HS 578T): 3.7 µM; GI50 (OVCAR-5): 3.14 µM
